Source: paper PMC7746945 (Neuro-Oncology, 2020)

Settings: daily for 42 days, with olaparib 150 mg 3 days/week
Source text: Up to 3 cycles were delivered in the absence of disease progression or unacceptable toxicity. Patients progression free after 3 cycles were eligible for further cycles if approved by sponsor. […] Neurosurgical resection was mandatory in the expansion cohort.
If 2 or more of 6 patients at one dose level experienced a dose limiting toxicity (DLT), this was considered “not tolerated” and designated the maximum administered dose (MAD).

## Cn1nnc2c(C(N)=O)ncn2c1=O [TMZ, temozolomide]
  MTD / RP2D, TMZ dose: 75 mg/m^2
